pIC50: −log10 of the molar value.
Tested on: KRAS PDC multicell spheroid viability
Assay: Anticancer human tumor 825966-067-R-J1-PDC patient-derived colon carcinoma cell line growth inhibition [KRAS2]
Conditions: for pIC50: curve of first compound; for viability, T/C: stronger effect = lower value
Excerpt: Multicellular complex tumor spheroid response to RAS pathway inhibitors in combination with a targeted agents in patient-derived cell lines with oncogenic KRAS variants from multiple cancer types
A high-throughput screen of multi-cell type tumor spheroids was designed to identify active combinations of targeted small molecules and KRAS pathway inhibitors. Complex spheroids include a stromal component modeled by human endothelial cells (HUVEC) and fibroblasts modeled by human mesenchymal stem cells (MSCs). The concentration ranges selected for each drug and investigational agent were based upon clinically achievable concentrations if the clinical Cmax of the agent was known.
Compounds. The drugs and investigational agents: BI-3406 (NSC825286), BAY-293 (NSC824723), batoprotafib (TNO155; NSC825523), sotorasib (AMG 510; NSC818433), MRTX1257 (NSC819558), elimusertib (BAY 1895344; NSC800525), molibresib (GSK525762; NSC774829), temuterkib (LY3214996; NSC803410), venetoclax (NSC766270), alisertib (NSC759677), olaparib (NSC753686), talazoparib (NSC767125), erdafitinib (NSC781556), ipatasertib (NSC767898), cabozantinib (NSC761068), nintedanib (NSC756659), abemaciclib (NSC768073), docetaxel (NSC628503), trametinib (NSC758246), and sapanisertib (NSC764658) were obtained from the National Cancer Institute (NCI) Developmental Therapeutics Program Chemical Repository. The FDA-approved anticancer drug set is available from the Developmental Therapeutics Program. […] The stock solutions were prepared in dimethyl sulfoxide (DMSO, Sigma-Aldrich, St. Louis, MO, cat. D2650) at 800-fold the tested concentration and stored at -70 degrees C prior to their use. All drugs and investigational agents were tested over a range starting from a high concentration at or near the clinical Cmax and decreasing in half-log increments. If the clinical Cmax for an agent had not been determined, the highest concentration tested was 10 microM.
Cell Culture. All cells were maintained in an incubator at 37 degrees C and 5% CO2 with 95% humidity. The PDC lines were cultured according to standard operating procedures established by the NCI PDMR (https://pdmr.cancer.gov/sops/default.htm). Briefly, all PDCs were thawed and cultured in Matrigel-coated flasks prepared with a working solution of 1X Ham's F-12 nutrient mix, without supplementation (Invitrogen, Waltham, MA, cat. 11765054), 100 U/mL penicillin-streptomycin (Invitrogen, cat. 15140122), and 2.5% Matrigel (Corning Inc., Corning, NY, cat. 354248) for the first three passages. All PDCs were cultured in complete DMEM/F-12 media containing advanced DMEM/F-12 (Invitrogen, cat. 12634028), 4.9% defined fetal bovine serum, heat inactivated (HyClone Laboratories Inc., Logan, UT, cat. SH30070.03HI), 389 ng/mL hydrocortisone (Sigma-Aldrich, cat. H4001), 9.7 ng/mL human EGF recombinant protein (Invitrogen, cat. PHG0313), 23.4 microg/mL adenine (Sigma-Aldrich, cat. A2786), 97.3 U/mL penicillin-streptomycin (Invitrogen, cat. 15140122), 1.9 mM L-glutamine (Invitrogen, cat. 25030081), and 9.7 microM Y-27632 dihydrochloride (Tocris Bioscience, Bristol, United Kingdom, cat. 1254). The PDCs were cultured in complete DMEM/F12 media without 9.7 microM Y-27632 dihydrochloride for at least two passages prior to the screen. The established cell line HOP-62 was cultured in RPMI 1640 medium, HEPES (Invitrogen, cat. 22400105) with 10% defined fetal bovine serum (HyClone Laboratories Inc., cat. SH30070.03) and 2 mM L-glutamine (Invitrogen, cat. 25030081). The pooled donor HUVEC were cultured in endothelial cell growth medium 2 (PromoCell, Heidelberg, Germany, cat. C-22011) and the hMSC were cultured in mesenchymal stem cell growth medium 2 (PromoCell, cat. C-28009). For all experiments, HUVEC and hMSC were used at passages </=5, while the malignant cell lines were used at passages </=15. […]

[1] = second compound 0.1 µM, first compound 0.0316 µM
[2] = second compound 0.1 µM, first compound 0.1 µM
[3] = second compound 0.316 µM, first compound 0.0316 µM
[4] = second compound 0.316 µM, first compound 0.1 µM
[5] = second compound 1 µM, first compound 0.0316 µM
[6] = second compound 1 µM, first compound 0.1 µM
[7] = second compound 3.16 µM, first compound 0.0316 µM
[8] = second compound 3.16 µM, first compound 0.1 µM
[9] = second compound 10 µM, first compound 0.0316 µM
[10] = second compound 10 µM, first compound 0.1 µM
[11] = second compound 0.1 µM, first compound 0.000316 µM
[12] = second compound 0.1 µM, first compound 0.001 µM
[13] = second compound 0.1 µM, first compound 0.00316 µM
[14] = second compound 0.1 µM, first compound 0.01 µM
[15] = second compound 0.316 µM, first compound 0.000316 µM
[16] = second compound 0.316 µM, first compound 0.001 µM
[17] = second compound 0.316 µM, first compound 0.00316 µM
[18] = second compound 0.316 µM, first compound 0.01 µM
[19] = second compound 1 µM, first compound 0.000316 µM
[20] = second compound 1 µM, first compound 0.001 µM
[21] = second compound 1 µM, first compound 0.00316 µM
[22] = second compound 1 µM, first compound 0.01 µM
[23] = second compound 3.16 µM, first compound 0.000316 µM
[24] = second compound 3.16 µM, first compound 0.001 µM
[25] = second compound 3.16 µM, first compound 0.00316 µM
[26] = second compound 3.16 µM, first compound 0.01 µM
[27] = second compound 10 µM, first compound 0.000316 µM
[28] = second compound 10 µM, first compound 0.001 µM
[29] = second compound 10 µM, first compound 0.00316 µM
[30] = second compound 10 µM, first compound 0.01 µM
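Also: spheroids exposed to compounds for 7 days.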
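For viability, T/C in this document: 100% = DMSO vehicle control viability.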

SMILES | pIC50 (second compound 0.1 µM) | pIC50 (second compound 0.316 µM) | pIC50 (second compound 1 µM) | pIC50 (second compound 3.16 µM) | pIC50 (second compound 10 µM) | viability, T/C [1] | viability, T/C [2] | viability, T/C [3] | viability, T/C [4] | viability, T/C [5] | viability, T/C [6] | viability, T/C [7] | viability, T/C [8] | viability, T/C [9] | viability, T/C [10] | viability, T/C [11] | viability, T/C [12] | viability, T/C [13] | viability, T/C [14] | viability, T/C [15] | other results
CCNC(=O)CC1N=C(c2ccc(Cl)cc2)c2cc(OC)ccc2-n2c(C)nnc21 (stereo not given) + CNCc1ccccc1-c1csc(C(C)Nc2nc(C)nc3cc(OC)c(OC)cc23)c1 | < 5.00 | < 5.00 | < 5.00 | > 7.50 | > 7.50 | 90.3% | 113% | 112% | 113% | 117% | 113% | 27.8% | 0.64% | 0.15% | 0.15% |  |  |  |  |  | viability, T/C (second compound 0.1 µM, first compound 0.316 µM): 118%; viability, T/C (second compound 0.1 µM, first compound 1 µM): 91.4%; viability, T/C (second compound 0.1 µM, first compound 3.16 µM): 82.2%; viability, T/C (second compound 0.1 µM, first compound 10 µM): 65%; viability, T/C (second compound 0.316 µM, first compound 0.316 µM): 120%; viability, T/C (second compound 0.316 µM, first compound 1 µM): 90.9%; viability, T/C (second compound 0.316 µM, first compound 3.16 µM): 83.1%; viability, T/C (second compound 0.316 µM, first compound 10 µM): 71.5%; viability, T/C (second compound 1 µM, first compound 0.316 µM): 122%; viability, T/C (second compound 1 µM, first compound 1 µM): 111%; viability, T/C (second compound 1 µM, first compound 3.16 µM): 96.6%; viability, T/C (second compound 1 µM, first compound 10 µM): 51.1%; viability, T/C (second compound 3.16 µM, first compound 0.316 µM): 0.53%; viability, T/C (second compound 3.16 µM, first compound 1 µM): 0.19%; viability, T/C (second compound 3.16 µM, first compound 3.16 µM): 2.33%; viability, T/C (second compound 3.16 µM, first compound 10 µM): 0.59%; viability, T/C (second compound 10 µM, first compound 0.316 µM): 0.17%; viability, T/C (second compound 10 µM, first compound 1 µM): 0.16%; viability, T/C (second compound 10 µM, first compound 3.16 µM): 0.14%; viability, T/C (second compound 10 µM, first compound 10 µM): 0.37%
CC(C)n1nc(-c2ccc3oc(N)nc3c2)c2c(N)ncnc21 + CC1OCC2(CCN(c3cnc(Sc4ccnc(N)c4Cl)c(N)n3)CC2)C1N | < 7.00 | < 7.00 | < 7.00 | < 7.00 | > 9.50 | 132% | 138% | 132% | 109% | 140% | 84.8% | 127% | 81.2% | 61.5% | 24.8% | 89.9% | 93.2% | 133% | 162% | 101% | viability, T/C [16]: 115%; viability, T/C [17]: 133%; viability, T/C [18]: 166%; viability, T/C [19]: 115%; viability, T/C [20]: 111%; viability, T/C [21]: 162%; viability, T/C [22]: 170%; viability, T/C [23]: 125%; viability, T/C [24]: 129%; viability, T/C [25]: 140%; viability, T/C [26]: 123%; viability, T/C [27]: 30.2%; viability, T/C [28]: 62.6%; viability, T/C [29]: 32.7%; viability, T/C [30]: 30.8%
CC(C)n1nc(-c2ccc3oc(N)nc3c2)c2c(N)ncnc21 + C=CC(=O)N1CCN(c2nc(=O)n(-c3c(C)ccnc3C(C)C)c3nc(-c4c(O)cccc4F)c(F)cc23)C(C)C1 | < 7.00 | < 7.00 | < 7.00 | < 7.00 | < 7.00 | 130% | 142% | 154% | 101% | 89.9% | 107% | 114% | 114% | 79.4% | 76.5% | 113% | 116% | 114% | 147% | 112% | viability, T/C [16]: 96.7%; viability, T/C [17]: 118%; viability, T/C [18]: 130%; viability, T/C [19]: 106%; viability, T/C [20]: 102%; viability, T/C [21]: 129%; viability, T/C [22]: 138%; viability, T/C [23]: 103%; viability, T/C [24]: 99.5%; viability, T/C [25]: 103%; viability, T/C [26]: 119%; viability, T/C [27]: 89.6%; viability, T/C [28]: 94.7%; viability, T/C [29]: 106%; viability, T/C [30]: 93.5%
Cn1ncnc1[C@H]1c2n[nH]c(=O)c3cc(F)cc(c23)N[C@@H]1c1ccc(F)cc1 + C=CC(=O)N1CCN(c2nc(=O)n(-c3c(C)ccnc3C(C)C)c3nc(-c4c(O)cccc4F)c(F)cc23)C(C)C1 | < 7.00 | < 7.00 | < 7.00 | < 7.00 | < 7.00 | 90.1% | 82.3% | 90.7% | 72.3% | 102% | 80.6% | 72% | 87.7% | 115% | 76.9% | 132% | 100% | 98.2% | 89.6% | 100% | viability, T/C [16]: 99.9%; viability, T/C [17]: 143%; viability, T/C [18]: 103%; viability, T/C [19]: 100%; viability, T/C [20]: 91.7%; viability, T/C [21]: 75.2%; viability, T/C [22]: 79.3%; viability, T/C [23]: 109%; viability, T/C [24]: 102%; viability, T/C [25]: 101%; viability, T/C [26]: 98.3%; viability, T/C [27]: 92.4%; viability, T/C [28]: 124%; viability, T/C [29]: 93.2%; viability, T/C [30]: 111%

Reference: PubChem BioAssay AID1963865 (Molecular Pharmacology Branch, DTP, NCI, 2024)
